Laboratory results published in patent US6660742B2, “Compositions and methods of the use thereof achiral analogues of CC-1065 and the duocarmycins” (priority 2000, dated 2003).
Where “and” joins values, the source holds several entries; their conditions need not be identical. Equal values may be shown once. Read-outs that look alike come from different tables or passages of the source.

Key:
SF-295 = assay: NCI screen, SF-295 (CNS Cancer)
Protocol: (§1) The compounds of this invention were also tested against the panel of 60 human cancer cell lines at the National Cancer Institute, Bethesda, Md. […] The cytrotoxicity studies were conducted using a 48 hour exposure, and measuring the optical density of sulforhodamide B-derived color.

SN12C = assay: NCI screen, SN12C (Renal Cancer)
Protocol: as §1

UACC-257 = assay: NCI screen, UACC-257 (Melanoma)
Protocol: as §1

A549/ATCC = assay: cells; conditions: Homo sapiens, A549, 48 h
IGROV1 = assay: NCI screen, IGROV1 (Ovarian Cancer); type: cell-based, human
Protocol: as §1

SK-MEL-28 = assay: NCI screen, SK-MEL-28 (Melanoma)
Protocol: as §1

UO-31 = assay: NCI screen, UO-31 (Renal Cancer)
Protocol: as §1

COLO 205 = assay: NCI screen, COLO 205 (Colon Cancer); type: cell-based, human
Protocol: as §1

P815 mastocytoma cells = assay: MTT cytotoxicity on P815 cells; type: cell-based, murine; conditions: 72 hr incubation
Protocol: The P815 and L1210 cell lines were obtained from American Type Tissue Culture Collection (ATCC). The cell lines were grown in Delbecco's Modified Eagle Medium (DMEM, Atlanta Biologicals) supplemented with 10% fetal bovine serum, Hepes Buffer (2 mM, Mediatech Cellgro, 25-060-Cl), L-Glutamine (2 mM, Mediatech Cellgro), and penicillin/streptomycin (50,000 units penicillin, 50,000 […], Atlanta Biologicals). Cells were maintained at 37° C. in a 5% humidified CO2 atmosphere. Cultured cells were counted using a hemocytometer and resuspended in fresh DMEM at a concentration of 8×10^5 cells/mL. This cell suspension (100 μL) was added to 96 well flat -bottom cell culture plates. At this concentration, 80,000 cells were seeded in each well. Drug solutions (dissolved in DMSO and diluted in DMEM) were added to each well (5 μL/well) resulting in final concentrations ranging from 1×10^−4 to 1×10^−12 M. Quadruplicate wells were prepared for each drug concentration. The plates were incubated for 72 hr at 37° C. in a 5% CO2 atmosphere. MTT (3-(4,5-dimethylthiazol-2-yl)-2,5-diphenyl tetrazolium bromide) was dissolved in PBS (5 mg/ml). After the indicated cell incubation period, 10 μL of this stock MTT solution was added to each well and the plates were further incubated for 4 h at 37° C. in a 5% CO2 atmosphere. […] The contents of the well were mixed thoroughly by pipetting the cell suspension up and down and the plates were allowed to sit at room temperature for 15 min in order to allow for full development of the purple color. The plates were read on a Dynatech Plate Reader, utilizing Dynex Revelation 3.2 software, with a test wavelenth of 570 nm and a reference wavelength of 630 nm.

[1] = Log10 Concentration −4.3, 48 hour exposure
[2] = Log10 Concentration −5.3, 48 hour exposure
[3] = Log10 Concentration −6.3, 48 hour exposure
[4] = Log10 Concentration −7.3, 48 hour exposure
[5] = Log10 Concentration −8.3, 48 hour exposure

Protocol for CCRF-CEM: as §1
Protocol for OVCAR-4: as §1
Protocol for RXF 393: as §1

COC(=O)c1[nH]c2c(O)cc(NC(=O)c3cc4cc(OC)c(OC)c(OC)c4[nH]3)c(CCCl)c2c1C(=O)OC [Compound 22, Dimethyl 4-(2-chloroethyl)-7-hydroxy-5-(5,6,7-trimethoxyindole-2-carboxamido)indole-2,3-dicarboxylate]
Percent Growth (SF-295): 1%
TGI (SF-295; SF-295, 48 hour exposure): >5.00E−05 Molar
Percent Growth (SF-295; SF-295, Log10 Concentration −5.3, 48 hour exposure): 11%
Percent Growth (SF-295; SF-295, Log10 Concentration −6.3, 48 hour exposure): 14%
Percent Growth (SF-295; SF-295, Log10 Concentration −7.3, 48 hour exposure): 74%
Percent Growth (SF-295; SF-295, Log10 Concentration −8.3, 48 hour exposure): 106%
TGI (SN12C; 48 hour exposure): 7.17E−06 Molar
Percent Growth (SN12C; [1]): −50%
Percent Growth (SN12C; [2]): 9%
Percent Growth (SN12C; [3]): 22%
Percent Growth (SN12C; [4]): 84%
Percent Growth (SN12C; [5]): 90%
TGI (UACC-257; 48 hour exposure): 2.25E−05 Molar
Percent Growth (UACC-257; [1]): −10%
Percent Growth (UACC-257; [2]): 19%
Percent Growth (UACC-257; [3]): 6%
Percent Growth (UACC-257; [4]): 99%
Percent Growth (UACC-257; [5]): 101%
TGI (RPMI-8226): >5.00E−05 Molar
GI50 (A549/ATCC): 135 nM
CC50 (A549/ATCC; read-out: LC50): > 50000 nM
TGI (IGROV1; IGROV1, 48 hour exposure): 1.62E−07 Molar
Percent Growth (IGROV1; IGROV1, Log10 Concentration −4.3, 48 hour exposure): −80%
Percent Growth (IGROV1; IGROV1, Log10 Concentration −5.3, 48 hour exposure): −35%
Percent Growth (IGROV1; IGROV1, Log10 Concentration −6.3, 48 hour exposure): −59%
Percent Growth (IGROV1; IGROV1, Log10 Concentration −7.3, 48 hour exposure): 61%
Percent Growth (IGROV1; IGROV1, Log10 Concentration −8.3, 48 hour exposure): 71%
TGI (SK-MEL-28; 48 hour exposure): 1.82E−06 Molar
Percent Growth (SK-MEL-28; [1]): −43%
Percent Growth (SK-MEL-28; [2]): −11%
Percent Growth (SK-MEL-28; [3]): 14%
Percent Growth (SK-MEL-28; [4]): 92%
Percent Growth (SK-MEL-28; [5]): 91%
Percent Growth (UO-31; UO-31, Log10 Concentration −4.3, 48 hour exposure): 8%
Percent Growth (UO-31; UO-31, Log10 Concentration −5.3, 48 hour exposure): 5%
Percent Growth (UO-31; UO-31, Log10 Concentration −6.3, 48 hour exposure): −47%
Percent Growth (UO-31; UO-31, Log10 Concentration −7.3, 48 hour exposure): 91%
Percent Growth (UO-31; UO-31, Log10 Concentration −8.3, 48 hour exposure): 96%
TGI (COLO 205; 48 hour exposure): >5.00E−05 Molar
Percent Growth (COLO 205; [1]): 20%
Percent Growth (COLO 205; [2]): 23%
Percent Growth (COLO 205; [3]): 31%
Percent Growth (COLO 205; [4]): 88%
Percent Growth (COLO 205; [5]): 95%

O=C(Nc1cc(O)ccc1CCCl)c1cc2cc(NC(=O)c3cc4ccccc4o3)ccc2[nH]1 [Compound 1, 4-(2-Chloroethyl)-3-[5-(5-benzofuran-2-carboxamido)indole-2-carboxamido]phenol]
IC50 (P815 mastocytoma cells): 43000 nM
Percent Growth (SF-295): 92% and 94%
GI50 (SF-295; SF-295): 2320 nM
TGI (SF-295; SF-295): 6.46E−06 Molar
Percent Growth (SF-295; SF-295, Log10 Concentration −4.0): −96%
Percent Growth (SF-295; SF-295, Log10 Concentration −5.0): −21%
Percent Growth (SF-295; SF-295, Log10 Concentration −6.0): 91%
Percent Growth (OVCAR-4): 108% and 128%
GI50 (OVCAR-4; OVCAR-4): 2390 nM
TGI (OVCAR-4; OVCAR-4): 5.06E−06 Molar
Percent Growth (OVCAR-4; OVCAR-4, Log10 Concentration −4.0): −82%
Percent Growth (OVCAR-4; OVCAR-4, Log10 Concentration −5.0): −45%
Percent Growth (OVCAR-4; OVCAR-4, Log10 Concentration −7.0): 115%
GI50 (SN12C): 3100 nM
TGI (SN12C): 9.41E−06 Molar
Percent Growth (SN12C; Log10 Concentration −4.0): −77%
Percent Growth (SN12C; Log10 Concentration −5.0): −3%
Percent Growth (SN12C; Log10 Concentration −7.0): 102%
GI50 (UACC-257): 1880 nM
TGI (UACC-257): 3.40E−06 Molar
Percent Growth (UACC-257; Log10 Concentration −4.0): −97%
Percent Growth (UACC-257; Log10 Concentration −7.0): 104%
Percent Growth (UACC-257; Log10 Concentration −8.0): 102%
CC50 (RXF 393): 4770 nM
CC50 (CCRF-CEM): > 100000 nM
CC50 (RPMI-8226): > 100000 nM
GI50 (RPMI-8226): 1860 nM
Percent Growth (RPMI-8226): −41%
TGI (RPMI-8226): 5.59E−06 Molar
Percent Growth (IGROV1): −65%
GI50 (IGROV1; IGROV1): 1500 nM
TGI (IGROV1; IGROV1): 3.41E−06 Molar
Percent Growth (IGROV1; IGROV1, Log10 Concentration −4.0): −94%
Percent Growth (IGROV1; IGROV1, Log10 Concentration −6.0): 75%
Percent Growth (IGROV1; IGROV1, Log10 Concentration −7.0): 98%
Percent Growth (IGROV1; IGROV1, Log10 Concentration −8.0): 93%
GI50 (SK-MEL-28): 2400 nM
TGI (SK-MEL-28): 6.10E−06 Molar
Percent Growth (SK-MEL-28; Log10 Concentration −4.0): −98%
Percent Growth (SK-MEL-28; Log10 Concentration −6.0): 97%
Percent Growth (SK-MEL-28; Log10 Concentration −8.0): 103%
Percent Growth (UO-31): 123%
GI50 (UO-31; UO-31): 3000 nM
TGI (UO-31; UO-31): 6.38E−06 Molar
Percent Growth (UO-31; UO-31, Log10 Concentration −4.0): −97%
Percent Growth (UO-31; UO-31, Log10 Concentration −5.0): −30%
Percent Growth (UO-31; UO-31, Log10 Concentration −7.0): 102%
Percent Growth (UO-31; UO-31, Log10 Concentration −8.0): 105%
